Laboratory results taken from patent US20190350964A1, “ANTI-CANCER COMPOUNDS AND USES THEREOF” (NATIONAL UNIVERSITY OF SINGAPORE, priority 2016, published 2019).

Experiments:
cancer cell lines = test: FACS of subG1 (PI) and Annexin V in cancer and normal cell lines; type: cell-based, human; conditions: 2.5 μM and 5 μM, 48 h
Description: Cell death was assessed via Annexin V and/or PI (propidium iodide) staining according to the manufacturer's instructions (eBioscience). Cell growth arrest was assessed by direct measurement of DNA synthesis through incorporation of the nucleoside analog bromodeoxyuridine (BrdU). Briefly, BrdU (30 μM, Sigma-Aldrich) was added for 2 h before harvesting cells. Cells were subsequently stained with Pacific Blue-conjugated BrdU antibody (Invitrogen) for 1 h followed by PI staining. Stained cells were analyzed by MACSQuant (MACS). Three independent experiments were performed in triplicate. The percentage of Annexin V/PI- or BrdU-positive cells was quantified using Flow Jo software (Becton Dickinson). Where indicated, the combined activity of caspase-3/7 was determined using the caspase-Glo 3/7 Assay Kit (Promega) and normalized to the number of viable cells as determined by MTT assay.

Huh7 = test: MTT cytotoxicity test (GI50); type: cell-based; conditions: Homo sapiens, Huh-7; Huh7, cancer, liver; MTT 72 h
SNU620 = test: MTT cytotoxicity test (GI50); type: cell-based; conditions: Homo sapiens; SNU620, cancer, gastric; MTT 72 h
Adenosine kinase = molecular target: T1, Adenosine kinase (Homo sapiens, UniProt P55263); test: MS-CETSA in normal BJ cell lysates; type: binding; conditions: lysate, 100 μM compound
T1 construct: After collecting data covering >8,000 proteins in lysates of normal BJ cells; endogenous in cells; host or cells: normal BJ cells, lysate
T1 sequence (P55263 whole entry): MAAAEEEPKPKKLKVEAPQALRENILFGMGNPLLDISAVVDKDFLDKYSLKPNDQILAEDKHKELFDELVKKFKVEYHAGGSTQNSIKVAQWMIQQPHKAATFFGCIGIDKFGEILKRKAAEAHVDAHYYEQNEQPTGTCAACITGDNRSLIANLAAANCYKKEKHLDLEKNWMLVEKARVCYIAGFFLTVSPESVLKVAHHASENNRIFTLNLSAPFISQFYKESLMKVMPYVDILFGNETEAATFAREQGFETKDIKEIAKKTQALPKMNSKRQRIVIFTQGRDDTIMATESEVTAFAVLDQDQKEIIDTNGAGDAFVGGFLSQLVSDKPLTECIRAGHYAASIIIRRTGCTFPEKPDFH
Description: Target identification was performed by cellular thermal shift assay (CETSA) coupled with quantitative mass spectrometry. In brief, normal BJ cells were lysed by combination of freeze/thaw and mechanical shearing with needle in buffer [50 mM HEPES (pH 7.5), 5 mM β-glycerophosphate, 0.1 mM Sodium Vanadate, 10 mM MgCl2, 1 mM TCEP and 1× Protease inhibitor Cocktail]. The cell debris was removed by centrifugation at 20,000 g for 20 min at 4° C. […] Each lysate was divided into 10 aliquots for heat treatment at the respective temperatures for 3 min in a 96-well thermocycler, followed by 3 min at 4° C. The lysate was centrifuged at 20,000 g for 20 min at 4° C. and the supernatant was transferred into microtubes for MS sample preparation.
After lysis, at least 100 μg of the protein (measured with a BCA assay) was subjected to reduction, denaturation and alkylation. Samples were subsequently incubated with sequencing grade LysC (Wako) and trypsin (Promega) for digestion overnight at 37° C. The digested samples were dried using a centrifugal vacuum evaporator, solubilized in 100 mM TEAB. […]
Proteins for which a low temperature plateau was not present were deleted using a cut off >0.85 for the average reading of the first three temperature points (in our experience proteins melting already at −37° C. are more prone to give false positives in a shift analysis).

PI5P4Ks = test: Cellular PI5P4Ks activity assay in HeLa cells (PIP4KII Activity Assay Kit); type: cell-based, human; conditions: HeLa cells treated 24 h, lysate assayed with PI(5)P; read-out: IC50, combined cellular PI5P4Ks
Description: HeLa cells were treated with DMSO or compounds for 24 h. Cells were lysed with RIPA buffer (Sigma-Aldrich), and total protein concentrations were measured using a bicinchoninic acid protein assay kit (Thermo Scientific). Next, 10 μg of cell lysate was incubated with 1 μM PI(5)P and 500 nM ATP for 1 h at 37° C. PI5P4K activity was measured by recording luminescent signals (Tecan) using a PIP4KII Activity Assay Kit (Echelon) according to the manufacturer's instructions. For cell-free PI5P4Kα activity assays, serial dilutions of compounds were pre-incubated with 1 ng of PI5P4Kα (kind gift from Daiichi Sankyo Co., Ltd. and Daiichi Sankyo RD Novare Co., Ltd.) in reaction buffer [50 mM HEPES (pH 7.0), 13 mM MgCl2, 0.005% CHAPS, 0.01% BSA, 2.5 mM DTT] for 1 h at 25° C. DOPS (80 μM, Avanti polar lipids), PI(5)P (20 μM, Echelon) and ATP (10 μM, Sigma-Aldrich) were added and further incubated for 90 min at room temperature. PI5P4Kα activity was measured by recording luminescent signals (Tecan) using an ADP-Glo Kinase Assay (Promega) according to the manufacturer's protocol.

[1] = system: Ras-driven glioma initiating cells (GICs); test: Sphere formation assay; type: cell-based, murine; conditions: 5 μM, 7 days
Description: Murine glioma-initiating cells (GICs) were established and cultured as described previously (Saga, I. et al., Neuro. Oncol. 16: 1048-1056 (2014)). Briefly, Ink4a/Arf-null neural stem/progenitor cells were transduced with human H-RasV12 and DsRed and propagated in serum-free Dulbecco modified Eagle medium (DMEM)/F12 (Sigma-Aldrich) supplemented with recombinant epidermal growth factor (EGF; PeproTech) and basic fibroblast growth factor (PeproTech) at 20 ng/ml, heparan sulfate (Sigma-Aldrich) at 200 ng/ml and B27 supplement without vitamin A (Invitrogen, Carlsbad, Calif.). GICs were dissociated and plated in 96-well plates at a density of 100 cells/well. […] Three plates were prepared for each treatment group, and 30 wells were quantified per plate. Images were acquired on a BZ-X700 inverted fluorescence microscope (Keyence). Quantification was performed by Nikon NIS-element software (n=90).

Q: Which “percentage of cells expressing Annexin V versus DMSO” value (cancer cell lines) does the source give for `N#C/C(=C\c1cccc2cnccc12)c1c[nH]c2ccccc12` [a131, (Z)-2-(1H-indol-3-yl)-3-(5-isoquinolyl)prop-2-enenitrile] here?
A: significantly higher (p<0.0001)

Q: And the “percentage of subG1 population versus DMSO” value (cancer cell lines; cancer cells)?
A: significantly higher (p<0.0001)

Q: What about the GI50 (Huh7) of the same molecule?
A: 1.2 µM

Q: And the GI50 (SNU620)?
A: 1 µM

Q: And the ED score (Adenosine kinase)?
A: 0.4158

Q: What about the ΔTm at 100 µM (Adenosine kinase; read-out: mean Delta Tm) of the same molecule?
A: 1.74 °C

Q: And the IC50 (PI5P4Ks)?
A: 0.6 µM

Q: And the “growth of GICs in tumor spheroid culture” value [1]?
A: significantly suppressed growth
